How the values were obtained:
[1] = test system: d(ATAT)5; test: UV-melting (UV-Tm) of DNA duplex with probe; format: binding; details: d(ATAT)5 with QCy-DT vs duplex alone
Procedure: (§1) The UV-vis absorption and emission spectra are recorded on Agilent Technologies Cary series UV-vis-NIR absorbance and Cary eclipse fluorescence spectrophotometers, respectively. Thermal denaturation (UV-melting) studies are carried out on Cary 5000 UV-vis-NIR spectrophotometer equipped with Cary temperature controller in the range of 10° C. to 90° C. with a ramp rate of 1° C./min. The variable temperature/wavelength mode is used. Absorption is monitored at 260 nm with regular 5° C. intervals. Melting temperatures (Tm) of DNA samples are calculated from the first derivatives of the absorption vs. temperature curves (thermal denaturation or melting curves) obtained by monitoring at 260 nm.
(§2) To understand the effect of QCy-DT binding to DNA on the thermal stability of DNA, temperature-dependent UV-melting studies (UV-Tm) is performed on different [QCy-DT+DNA] complexes. […] Therefore, the binding affinity, fluorescence quantum yield, and UV-Tm data validated the preferential recognition of AT-rich DNA by QCy-DT probe compared to GC-rich DNA.

[2] = test system: (D1)mix; test: UV-melting (UV-Tm) of DNA duplex with probe; format: binding; details: (D1)mix with QCy-DT vs duplex alone
Procedure: as §1, §2

[3] = test system: Drew AT; test: UV-melting (UV-Tm) of DNA duplex with probe; format: binding; details: Drew AT with QCy-DT vs duplex alone
Procedure: as §1, §2

[4] = test system: (A-T)20; test: UV-melting (UV-Tm) of DNA duplex with probe; format: binding; details: (A-T)20 with QCy-DT vs duplex alone
Procedure: as §1, §2

[5] = test system: (D1)mix; test: Switch-on NIR-fluorescence enhancement with DNA; format: binding
Procedure: (§3) All the chemicals, reagents, single-stranded oligos (dA20, dT20, dG20, dC20), self-complementary oligos {d(ATAT)5, (D1)mix, Drew-AT, Calf-Thymus DNA (CT-DNA), (DM1, DM2, DM3, DM4, DM5, DM6 and DM7)}, RNA, were purchased from Sigma-Aldrich. ^1H and ^13C NMR spectra were recorded on a Bruker AV-400 MHz spectrometer with chemical shifts reported as parts per million (ppm) (in DMSO-d6, tetramethylsilane as an internal standard) at 20° C. UV-vis absorption and emission spectra were measured in quartz cuvettes of 1 cm path length. High resolution mass spectra (HRMS) were obtained on Agilent Technologies 6538 UHD Accurate-Mass Q-TOF LC/MS spectrometer. All biophysical studies (UV-vis, fluorescence and Cirular dichroism) are carried out at the concentration 0-5 μM of probe, volume=500 μL, temperature=25° C. and time of incubation=2 minutes. HeLa cells and MCF7 cells used in the biological studies are obtained from “Molecular reproduction, development and genetics lab, Indian institute of science, Bangalore, India”
(§4) Stock solutions of QCy-DT are prepared in double-distilled (dd) water in the order of 10^−3 M and stored at about −10° C. DNA stock solutions are prepared by dissolving oligo samples in double-distilled (dd) water in the order of 10^−4 M. Solutions of DNA duplexes are prepared in Tris-HCl (100 mM, pH=7.4) buffer solution by mixing complementary DNA strands in equimolar concentration. This solution is then subjected to annealing by heating up to about 85° C. for about 15 minutes, subsequently cooled to room temperature for about 7 hours and stored in the refrigerator (about 4° C.) for about 4 hours.
as §1
(§5) For this, poly AT-duplexes such as (A-T)20, self-complementary d(ATAT)5, Drew-AT (14 base pair self-complementary sequence with 6AT-base pairs in central core), poly GC-duplex (G-C)20, (D1)mix, which is a 16 base pair long self-complementary duplex and CT-DNA as mixed AT/GC duplexes is chosen (Table 2). […] QCy-DT experience hydrophobic environment upon binding to minor groove of AT-rich duplex DNA which prevents aromatic π-stacking interactions with base pairs and other molecules of the probe that led to the hyperchromicity in the absorbance maximum of QCy-DT. […] Further, the absorption and emission properties of QCy-DT in the presence of poly AT- and GC-duplexes are studied. […] Further, we also studied the emission behavior of QCy-DT in presence of CT-DNA, (D1)mix, single-stranded (ss) DNAs and RNA. […] To ascertain the switch-on behavior of QCy-DT in the presence of AT-rich DNA duplex, viscosity measurements are performed by increasing the glycerol content in buffer solution. […] Consequently, the observed strong fluorescence enhancement in the presence of AT-rich DNA duplexes is the result of restriction of intramolecular rotation of probe QCy-DT in the constrained environments of DNA, which also facilitates the desolvation (water molecules) around QCy-DT in the hydrophobic environment of DNA duplex (FIG. 1c).

[6] = test system: single-stranded (ss) DNAs; test: Switch-on NIR-fluorescence enhancement with DNA; format: binding; details: ssDNAs
Procedure: as §3, §4, §1, §5

[7] = test system: (G-C)20; test: Switch-on NIR-fluorescence enhancement with DNA; format: binding; details: QCy-DT 2 μM, (G-C)20 4 μM, Tris-HCl
Procedure: as §3, §4, §1, §5

[8] = test system: Drew-AT; test: Switch-on NIR-fluorescence enhancement with DNA; format: binding
Procedure: as §3, §4, §1, §5

[9] = test system: (A-T)20; test: Switch-on NIR-fluorescence enhancement with DNA; format: binding
Procedure: as §3, §4, §1, §5

[10] = test system: MCF-7 cells; test: Fluorescence study in live cells; format: cell-based; details: live MCF-7 cells, 0.5 and 1 μM, 60 min
Procedure: MCF-7 cells are propagated on 20 mm cover slips in a 6-well plate in DMEM medium supplemented with 10% fetal bovine serum at about 37° C. in a humidified atmosphere containing 5% CO2 till 80% confluency is achieved. Cells are incubated for about 60 min with probe QCy-DT (resuspended in Mili-Q water) at various concentrations (0.5 μM and 1 μM) in a humidified CO2 incubator at about 37° C. Milli-Q water is used as a vehicle control. Following the treatment, fluorescence microscopy is performed using Carl Zeiss AXIO Imager Z1 and the software used for image capturing is AxioVision Rel. 4.8.
In order to check its permeability, cellular uptake studies are carried out in live and fixed conditions of MCF-7 and HeLa cells, respectively. First, MCF-7 cells are incubated with probe QCy-DT (0.5 and 1 μM) without fixing, and live cell imaging is conducted using Carl Zeiss fluorescence microscope as described above. […] Next, HeLa cells are fixed and incubated with QCy-DT (0.5 and 1 μM) along with Hoechst as the control nuclear staining dye. […] Therefore, staining results obtained with live and fixed cells confirmed high cell permeability, efficiency (low staining concentration of 1 μM), and preferential targeting of cell nuclear DNA.

C[n+]1c(/C=C/c2ccc(O)c(/C=C/c3sc4ccccc4[n+]3C)c2)sc2ccccc21 [QCy-DT, quinone cyanine-dithiazole]
ΔTm [1]: 3.5 °C
ΔTm [2]: 2.5 °C
ΔTm [3]: 4.2 °C
ΔTm [4]: 6.2 °C
fluorescence enhancement [5]: ~55 fold
fluorescence enhancement [6]: ~2 fold
fluorescence enhancement [7]: 8 fold
fluorescence enhancement ([8]; QCy-DT 2 μM, Drew-AT 4 μM, λem=650 nm, vs probe alone): ~200 fold
fluorescence enhancement with 5′-AAATTT-3′ core, higher than 5′-AATT-3′ core ([8]; ratio 5′-AAATTT-3′ / 5′-AATT-3′): ~4 fold
fluorescence enhancement ([9]; QCy-DT 2 μM, (A-T)20 4 μM, Tris-HCl): ~250 fold
difference in fluorescence enhancement, (A-T)20 compared to d(ATAT)5 ([9]; ratio (A-T)20 / d(ATAT)5): ~4 fold
cellular uptake / nuclear staining [10]: selective staining of the cell nucleus
